Earlier results in US8748481B2, “Method for treating gastrointestinal disorder” (Sucampo AG, priority 2004, dated 2014).
Counter-ions that a name gives are not always drawn.

System: patients with IBS with constipation / chronic idiopathic constipation
Settings: cited from earlier work

For `[H]/N=C(/NCCCCC)N/N=C/c1c[nH]c2ccc(OC)cc12` [Zelnorm®, tegaserod maleate], the “Return of symptoms after stopping” value (after patients stop taking the drug) is listed as “may return within 1 or 2 weeks”, the “Treatment effect over placebo in patients aged 65 years and older” value (subgroup analyses) is listed as “no significant treatment effect” and the “Response rates vs. placebo in males” value (two randomized, placebo-controlled, double-blind studies enrolling 288 males) is listed as “no significant differences”.
